Reference: a melting point compilation (Tetko et al.; mined from patent text by program, amines drawn as free bases though some values may be those of a salt)

Row | Compound | melting point
1 | CC1COc2c(N3CCN(C#N)CC3NC(=N)N)c(F)cc3c(=O)c(C(=O)O)cn1c23 (stereo not drawn) | 298 to 300 °C
2 | CCONC(=O)n1nc(Oc2c(Cl)cc(C(F)(F)F)cc2Cl)cc1C | 105 to 107 °C
3 | COc1ccc(CN(C(=O)C2CCOc3c(O)cccc32)c2ccc(C(C)C)cc2)cn1 (stereo not drawn) | 141 °C
4 | CC(C)C12OC1C1OC13C1(C)CCC4=C(COC4=O)C1CC1OC13C2O (stereo not drawn) | 226 to 228 °C
5 | COc1ccc(CBr)cc1S(=O)(=O)NC(C)(C)C | 137 to 142 °C
6 | O=C(CN1CCOCC1)N1CCN(c2ccc(O)cc2)CC1 | 197 °C
7 | Cc1cc(C(=O)NCC(N)=O)cc(-c2cccc3cc(Cc4cccc(C(F)(F)F)c4)sc23)n1 | 183 to 184 °C
8 | O=C(O)CNCC(=O)NC[C@@H]1CC(c2ccc(-c3ccc(N4C[C@H](Cn5ccnn5)OC4=O)cc3F)cn2)=NO1 | 200 to 210 °C
9 | COc1ccc(OCC(=O)CS(=O)(=O)C(c2ccc(Cl)cc2)c2ccc(Cl)cc2)cc1 | 116 to 117 °C
10 | CCC1Oc2ccc(Br)cc2N(CC(O)CO)C1=O (stereo not drawn) | 91 °C
11 | O=C(c1ccccc1Cl)c1cccnc1Br | 76.3 °C
12 | COc1cc(C2CCN(C(=O)CN(C)C)CC2)ccc1Nc1ncc2ccc(-c3ccccc3N(C)S(C)(=O)=O)n2n1 | 99 to 110 °C
13 | Cc1cc2c(-c3cccc(Br)c3)c(CC(=O)Nc3ccc(F)cc3C(F)(F)F)c(=O)oc2cc1Cl | 222 to 223 °C
14 | COCN1C(=O)OC(C)(C)c2cc(-c3cc(F)cc(C#N)c3)ccc21 | 169 to 171 °C
15 | CC(NC(=O)c1cc(Cl)ccc1NC(=O)c1cc(Br)nn1-c1ncccc1Cl)C1CC1 (stereo not drawn) | 231 to 233 °C
16 | O=C(NC12CC3CC(CC(C3)C1)C2)c1cc(O)c(O)c([N+](=O)[O-])c1 | 207 to 208 °C
17 | CCC(=O)Nc1cscn1 | 129 to 132 °C
18 | CCOc1nc(=O)n(C(=O)NC(=O)CCl)s1 | 132 °C
19 | Cc1c(Br)cc(C(C)(C)C)c(O)c1C(=O)O | 54 to 58 °C
20 | COc1cc2c(cc1OC)C(C)(CCCCl)OCC2 (stereo not drawn) | 77 to 79 °C
21 | Nc1ncnc2c1c(-c1cc(O)cc(F)c1)nn2Cc1oc2ccc(F)cc2c(=O)c1-c1cccc(F)c1 | 127 to 129 °C
22 | CC#CCOc1ccc(S(=O)(=O)N(C)CCC(=O)O)cc1 | 90 to 110 °C
23 | C=CCOc1ccccc1OCC(O)CNC(C)C (stereo not drawn) | 76 to 79 °C

Row | Compound | melting point
24 | COC(=O)C(CSSc1ccccc1C(=O)Nc1ccc(S(N)(=O)=O)cc1)NC(C)=O (stereo not drawn) | 138 to 140 °C
25 | NC(=O)C(=O)NC(C(=O)O)c1ccccc1 (stereo not drawn) | 193 °C
26 | COc1cccc2c1N(S(=O)(=O)c1ccc(-c3ccc(F)cc3F)cc1)C(C(=O)NCc1ccc(C(=O)O)cc1)C2 (stereo not drawn) | 218 °C
27 | Nc1nc2cc(Br)ccn2n1 | 190 to 192 °C
28 | O=C(O)c1cnn(-c2c(Cl)cc(C(F)(F)F)cc2Cl)n1 | 155 to 157 °C
29 | COc1ccc(C2(CCN3CCC(C(=O)c4nc5ccccc5n4Cc4ccc(F)cc4)CC3)CCN(C(=O)c3ccccc3)C2)cc1OC (stereo not drawn) | 42 to 44 °C
30 | Cc1cc(=O)n(-c2ccc(Cl)cc2)cn1 | 177 to 179 °C
31 | O=C(c1ccccc1)c1cccc(Cc2c(O)c3ccc(Cl)cc3[nH]c2=O)c1 | 294 to 295 °C
32 | CCn1c(=O)c2cc(C(=O)O)cn2c2cc(Cl)ccc21 | 322 to 326 °C
33 | CCC1=C(c2ccc(F)c(F)c2)C(=NO)CC1 | 136 to 137 °C
34 | CNC(=O)n1sc(SC)nc1=O | 144 °C
35 | CCOc1ccc(-c2nc(C(O)c3ccc(OC)c(OC)c3)cs2)cc1OCC (stereo not drawn) | 122 to 123 °C
36 | CC(=O)Nc1ccc(S(=O)(=O)Nc2cc(C)on2)cc1 | 220 to 222 °C
37 | COC(=O)N(CC(=O)O)C(=O)c1c(Br)ccc2c(C(F)(F)F)c(OC)ccc12 | 164 to 166 °C
38 | CNC1c2c(O)c(C)cc(C)c2C2CCCCC21 (stereo not drawn) | 110 to 111 °C
39 | COC(=O)c1ccc(-c2nc(-c3c(F)c(F)c(F)c(F)c3F)cs2)cc1 | 141 to 142 °C
40 | CCc1ccc(OCCc2c[nH]cn2)cc1 | 178 °C
41 | Nc1c(C(=O)c2cccc(Br)c2)[nH]c2cc(Cl)ccc12 | 142 to 143 °C
42 | CCOC(=O)C1CCC(=O)NC1=O (stereo not drawn) | 69 to 74 °C
43 | O=c1[nH]c2cc(Br)cc3c2n(c1=O)CC3 | > 300 °C
44 | Nc1ccc(Sc2cccc3cnccc23)c([N+](=O)[O-])c1 | 222 to 227 °C
45 | Cc1c(C(F)(F)F)ncn(-c2cc([N+](=O)[O-])c(F)cc2F)c1=O | 157 °C

Now from value to compound:

Row | melting point | Compound
46 | 163 to 165 °C | O=c1c2cc(F)ccc2nc(NCc2ccccc2F)n1-c1ccccc1Cl
47 | 165 to 166 °C | C(#Cc1ccc2[nH]ccc2c1)CCN1CCC(Cc2ccccc2)CC1
48 | 202 to 205 °C | CCN(CC)c1ccc(Nc2nc(N)c(C(=O)c3ccccc3[N+](=O)[O-])s2)cc1
49 | 153 °C | O=C(Nc1ccnc(Br)c1)C1(O)CCCC1
50 | 70 to 71 °C | COc1ccccc1N1CCN(C(=O)OC(C)(C)C)CC1
51 | 105 to 108 °C | CC1(C)CCCC[C@H]1[C@H](O)c1ccc(F)cc1
52 | 186 to 187 °C | O=C(CCCN1CCC(c2noc3cc(F)ccc23)CC1)c1cc2c(s1)C(=O)NCCC2
53 | 235 to 237 °C | CN1CCN(c2ccccc2C=C2C(=O)Nc3ccc(Cl)cc32)CC1
54 | 106 to 108 °C | CC(Br)c1ccc(-c2onc3ccccc23)cc1 (stereo not drawn)
55 | 114 to 117 °C | CCC(=O)c1cccc2cccc(O)c12
56 | 108 to 111 °C | CCOCc1nc2c(N)nc(C)cc2n1CCCCN
57 | 109 to 111 °C | COc1ccc(C2=C(CC(C)N(CCO)C(C)C)C(=O)NCCC2)cc1 (stereo not drawn)
58 | 138 °C | Nc1cc(C(=O)c2ccccc2)ccc1N1CCOCC1
59 | 89 to 90 °C | COC(=O)CCc1cc(C(=O)c2ccccc2Cl)c(N)s1
60 | 105 to 107 °C | Oc1ccc2c(c1CNc1ccccc1)CCCO2
61 | 127 °C | OCC1(c2ccccc2)CCN(Cc2ccccc2)CC1
62 | 265 to 268 °C | Nc1c(-c2c[nH]nn2)c(=O)oc2ccccc12
63 | 140 to 145 °C | CN1C(=O)c2ccccc2CC1C(=O)NC(Cc1c[nH]cn1)C(=O)N1CCCC1C(N)=O (stereo not drawn)
64 | 72 to 76 °C | CS(=O)(=O)c1ccc(C(=O)C2C(=O)CCCC2=O)c(Cl)c1C1=NOC(Cc2ccccc2)C1 (stereo not drawn)
65 | 251 to 254 °C | CCOC(=O)c1cnn(C)c1C(=O)Nc1ccc2nc(-c3ccccc3)nn2c1
66 | 175 to 176 °C | CCOCc1nc2c(N)nc3ccccc3c2n1CCCC1(O)CCCCC1
67 | 219 to 220 °C | CCCCc1nc2c(N)nc3ccc(OCc4ccc(OC(F)(F)F)cc4)cc3c2n1C
68 | 142 to 143 °C | O=C(NCCO)c1cccc(-c2ccc3c(n2)N(Cc2ccc(Cl)cc2Cl)CC3)c1
69 | 267 to 269 °C | O=c1[nH]cnc2cc(OCc3ccccc3)ccc12
70 | 107 to 110 °C | CC(=O)C(Cc1ccccc1)Nc1nc2ccc(C(C)C)cc2s1 (stereo not drawn)
71 | 122 to 123 °C | Cc1oc(-c2ccco2)nc1COc1ccc(COc2nn(-c3ccccc3)cc2C=O)cn1
72 | 156 °C | CCOC(=O)C1=C(N)N=C(SCC)C(C(=O)OCC)C1c1ccncc1 (stereo not drawn)
73 | 96 to 97 °C | CCOC(=O)CC[C@H](NC(=O)c1ccc2c(c1)CCN2)C(=O)OCC
